Laboratory results: US11596639B2, “Substituted indole Mcl-1 inhibitors” (Vanderbilt University, priority 2016, dated 2023)
Read-outs that look alike come from different tables or passages of the source.

Key:
Mcl-1 = Mcl-1 (Homo sapiens (Human), UniProt Q07820); experiment: TR-FRET binding assay, FITC-Bak peptide and MBP-tagged Mcl-1; details: read-out: Ki for Inhibition of Mcl-1 by TR-FRET assay
Description: Compounds are diluted in DMSO in a 16-point, semilog serial dilution scheme. […] The plate was mixed and incubated for 3 hours at room temperature. […] TR-FRET signal is plotted and IC50 and Ki values are calculated in the same manner as the fluorescence polarization anisotropy based competition assays.

[1] = system: H929 human cancer cell lines; experiment: Cellular viability / proliferation (Cell TiterGlo, 72 h); assay type: cell-based
How it was run: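 Compounds were added as 2-fold serial dilutions from 50 μM (final DMSO <1%) to H929 cells seeded 1,000 per well in 10% FBS medium one day earlier.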

[2] = Homo sapiens, NCI-H929, 72 h, read-out: GI50 on cellular proliferation of H929 human cancer cell lines, H929 cells, 72 h, Cell TiterGlo, 10% FBS

Mcl-1, sequence (Q07820 172-327): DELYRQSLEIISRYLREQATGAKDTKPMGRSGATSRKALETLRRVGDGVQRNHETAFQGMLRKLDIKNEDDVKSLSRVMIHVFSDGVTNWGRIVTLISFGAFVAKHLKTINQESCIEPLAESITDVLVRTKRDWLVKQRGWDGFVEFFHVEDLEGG

In the case of `Cc1cc(OCCCc2c3n(c4c(-c5c(C)nn(C)c5C)c(Cl)ccc24)[C@H](C)CN(c2cn(CC(=O)N4CCOCC4)c4ccc(-c5ncn(C)n5)cc24)C3=O)cc(C)c1Cl` [Example 525, (R)-7-Chloro-10-(3-(4-chloro-3,5-dimethylphenoxy)propyl)-4-methyl-2-(5-(1-methyl-1H-1,2,4-triazol-3-yl)-1-(2-morpholino-2-oxoethyl)-1H-indol-3-yl)-6-(1,3,5-trimethyl-1H-pyrazol-4-yl)-3,4-dihydropyrazino[1,2-a]indol-1(2H)-one], the Ki (Mcl-1) is reported as 0.41 nM and the GI50 [1, 2] is reported as 330 nM.

`Cc1cc(OCCCc2c3n(c4c(-c5c(C)nn(C)c5C)c(Cl)ccc24)[C@H](C)CN(c2cn(Cc4ccc(F)c(F)c4)c4ccc(C(=O)O)cc24)C3=O)cc(C)c1Cl` [Example 645, (R)-3-(7-chloro-10-(3-(4-chloro-3,5-dimethylphenoxy)propyl)-4-methyl-1-oxo-6-(1,3,5-trimethyl-1H-pyrazol-4-yl)-3,4-dihydropyrazino[1,2-a]indol-2(1H)-yl)-1-(3,4-difluorobenzyl)-1H-indole-5-carboxylic acid] was tested, and the Ki (Mcl-1) was 3.3 nM and the GI50 [1, 2] was 3700 nM.

Work on `COCCOCc1cc(N2C[C@@H](C)n3c(c(CCCOc4cc(C)c(Cl)c(C)c4)c4ccc(Cl)c(-c5c(C)nn(C)c5C)c43)C2=O)c2c(c1)cc(C(=O)O)n2C` [Example 595, (R)-7-(7-chloro-10-(3-(4-chloro-3,5-dimethylphenoxy)propyl)-4-methyl-1-oxo-6-(1,3,5-trimethyl-1H-pyrazol-4-yl)-3,4-dihydropyrazino[1,2-a]indol-2(1H)-yl)-5-((2-methoxyethoxy)methyl)-1-methyl-1H-indole-2-carboxylic acid] yielded a Ki (Mcl-1) of less than 0.2 nM and a GI50 [1, 2] of less than 200 nM.

Work on `COCCn1c(C(=O)O)cc2cc(C)cc(N3C[C@@H](C)n4c(c(CCCOc5cc(C)c(Cl)c(C)c5)c5ccc(Cl)c(-c6c(C)nc(CN7CCOCC7)nc6C)c54)C3=O)c21` [Example 717, (R)-7-(7-chloro-10-(3-(4-chloro-3,5-dimethylphenoxy)propyl)-6-(4,6-dimethyl-2-(morpholinomethyl)pyrimidin-5-yl)-4-methyl-1-oxo-3,4-dihydropyrazino[1,2-a]indol-2(1H)-yl)-1-(2-methoxyethyl)-5-methyl-1H-indole-2-carboxylic acid] yielded a Ki (Mcl-1) of less than 0.2 nM and a GI50 [1, 2] of less than 200 nM.

`CC(=O)N1CCN(C(=O)c2cc(N3C[C@@H](C)n4c(c(CCCOc5cc(C)c(Cl)c(C)c5)c5ccc(Cl)c(-c6c(C)nn(C)c6C)c54)C3=O)c3c(c2)cc(C(=O)O)n3C)CC1` [Example 629, (R)-5-(4-acetylpiperazine-1-carbonyl)-7-(7-chloro-10-(3-(4-chloro-3,5-dimethylphenoxy)propyl)-4-methyl-1-oxo-6-(1,3,5-trimethyl-1H-pyrazol-4-yl)-3,4-dihydropyrazino[1,2-a]indol-2(1H)-yl)-1-methyl-1H-indole-2-carboxylic acid] showed a Ki (Mcl-1) of less than 0.2 nM and a GI50 [1, 2] of 560 nM.

`COCCOCCn1c(C(=O)O)cc2cc(C)cc(N3C[C@@H](C)n4c(c(CCCOc5cc(C)c(Cl)c(C)c5)c5ccc(Cl)c(-c6c(C)nn(C)c6C)c54)C3=O)c21` [Example 678, (R)-7-(7-chloro-10-(3-(4-chloro-3,5-dimethylphenoxy)propyl)-4-methyl-1-oxo-6-(1,3,5-trimethyl-1H-pyrazol-4-yl)-3,4-dihydropyrazino[1,2-a]indol-2(1H)-yl)-1-(2-(2-methoxyethoxy)ethyl)-5-methyl-1H-indole-2-carboxylic acid] gave a Ki (Mcl-1) of 0.22 nM and a GI50 [1, 2] of less than 200 nM.

`Cc1cc(OCCCc2c3n(c4c(-c5c(C)ncnc5C)c(Cl)ccc24)[C@H](C)CN(c2cn(C)c4ncc(C(=O)O)cc24)C3=O)cc(C)c1Cl` [Example 636, (R)-3-(7-chloro-10-(3-(4-chloro-3,5-dimethylphenoxy)propyl)-6-(4,6-dimethylpyrimidin-5-yl)-4-methyl-1-oxo-3,4-dihydropyrazino[1,2-a]indol-2(1H)-yl)-1-methyl-1H-pyrrolo[2,3-b]pyridine-5-carboxylic acid] was tested, and the Ki (Mcl-1) was 0.5 nM and the GI50 [1, 2] was 980 nM.

`Cc1nnn(-c2ccc3c(n2)c(N2C[C@@H](C)n4c(c(CCCOc5cc(C)c(Cl)c(C)c5)c5ccc(Cl)c(-c6c(C)nn(C)c6C)c54)C2=O)cn3C)n1` [Example 684, (R)-7-Chloro-10-(3-(4-chloro-3,5-dimethylphenoxy)propyl)-4-methyl-2-(1-methyl-5-(5-methyl-2H-tetrazol-2-yl)-1H-pyrrolo[3,2-b]pyridin-3-yl)-6-(1,3,5-trimethyl-1H-pyrazol-4-yl)-3,4-dihydropyrazino[1,2-a]indol-1(2H)-one] showed a Ki (Mcl-1) of 0.6 nM and a GI50 [1, 2] of 520 nM.

With `Cc1cc(OCCCc2c3n(c4c(-c5c(C)nn(C)c5C)c(Cl)ccc24)[C@H](C)CN(c2cn(C)c4ncc(C(=O)O)nc24)C3=O)cc(C)c1Cl` [Example 585, (R)-7-(7-chloro-10-(3-(4-chloro-3,5-dimethylphenoxy)propyl)-4-methyl-1-oxo-6-(1,3,5-trimethyl-1H-pyrazol-4-yl)-3,4-dihydropyrazino[1,2-a]indol-2(1H)-yl)-5-methyl-5H-pyrrolo[2,3-b]pyrazine-2-carboxylic acid] the Ki (Mcl-1) was less than 0.2 nM and the GI50 [1, 2] was 1500 nM.

Molecule `Cc1cc(OCCCc2c3n(c4c(-c5c(C)nn(C)c5C)c(Cl)ccc24)[C@H](C)CN(c2cn(CCN4CCCCC4)c4ccc(C(=O)O)cc24)C3=O)cc(C)c1Cl` [Example 543, (R)-3-(7-Chloro-10-(3-(4-chloro-3,5-dimethylphenoxy)propyl)-4-methyl-1-oxo-6-(1,3,5-trimethyl-1H-pyrazol-4-yl)-3,4-dihydropyrazino[1,2-a]indol-2(1H)-yl)-1-(2-(piperidin-1-yl)ethyl)-1H-indole-5-carboxylic acid] has a Ki (Mcl-1) of 2.9 nM and a GI50 [1, 2] of 1800 nM.

For “(R)-7-Chloro-10-(3-(4-chloro-3,5-dimethylphenoxy)propyl)-4-methyl-2-(5-(1-methyl-1H-1,2,4-triazol-3-yl)-1-(2-morpholinoethyl)-1H-indol-3-yl)-4-(1,3,5-trimethyl-1H-pyrazol-4-yl)-3,4-dihydropyrazino[1,2-a]indol-1(2H)-one [Example 583]”, the Ki (Mcl-1) was 0.73 nM and the GI50 ([1]; H929 cells, 72 h, Cell TiterGlo, 10% FBS, read-out: GI50 on cellular proliferation of H929 human cancer cell lines) was less than 200 nM.

`Cc1cc(OCCCc2c3n(c4c(-c5c(C)nn(C)c5C)c(Cl)ccc24)[C@H](C)CN(c2cn(CCN4CCCC4)c4ccc(-c5ncn(C)n5)cc24)C3=O)cc(C)c1Cl` [Example 586, (R)-7-Chloro-10-(3-(4-chloro-3,5-dimethylphenoxy)propyl)-4-methyl-2-(5-(1-methyl-1H-1,2,4-triazol-3-yl)-1-(2-(pyrrolidin-1-yl)ethyl)-1H-indol-3-yl)-6-(1,3,5-trimethyl-1H-pyrazol-4-yl)-3,4-dihydropyrazino[1,2-a]indol-1(2H)-one] gave a Ki (Mcl-1) of 2.6 nM and a GI50 [1, 2] of 400 nM.

`Cc1cc(OCCCc2c3n(c4c(-c5c(C)nn(C)c5C)c(Cl)ccc24)[C@H](C)CN(c2cn(CCN4CCN(C)CC4)c4ccc(C(=O)O)cc24)C3=O)cc(C)c1Cl` [Example 569, (R)-3-(7-chloro-10-(3-(4-chloro-3,5-dimethylphenoxy)propyl)-4-methyl-1-oxo-6-(1,3,5-trimethyl-1H-pyrazol-4-yl)-3,4-dihydropyrazino[1,2-a]indol-2(1H)-yl)-1-(2-(4-methylpiperazin-1-yl)ethyl)-1H-indole-5-carboxylic acid] was tested, and the Ki (Mcl-1) was 0.49 nM and the GI50 [1, 2] was 470 nM.

For `Cc1cc(OCCCc2c3n(c4c(-c5c(C)nn(C)c5C)c(Cl)ccc24)[C@H](C)CN(c2cc(C(=O)N4CCOCC4)cc4cc(C(=O)O)n(C)c24)C3=O)cc(C)c1Cl` [Example 591, (R)-7-(7-chloro-10-(3-(4-chloro-3,5-dimethylphenoxy)propyl)-4-methyl-1-oxo-6-(1,3,5-trimethyl-1H-pyrazol-4-yl)-3,4-dihydropyrazino[1,2-a]indol-2(1H)-yl)-1-methyl-5-(morpholine-4-carbonyl)-1H-indole-2-carboxylic acid], the Ki (Mcl-1) was less than 0.2 nM and the GI50 [1, 2] was 2800 nM.

`COc1ccc(N2C[C@@H](C)n3c(c(CCCOc4cc(C)c(Cl)c(C)c4)c4ccc(Cl)c(-c5c(C)nc(CN(C)C)nc5C)c43)C2=O)c2c1cc(C(=O)O)n2Cc1ccccn1` [Example 482, (R)-7-(7-Chloro-10-(3-(4-chloro-3,5-dimethylphenoxy)propyl)-6-(2-((dimethylamino)methyl)-4,6-dimethylpyrimidin-5-yl)-4-methyl-1-oxo-3,4-dihydropyrazino[1,2-a]indol-2(1H)-yl)-4-methoxy-1-(pyridin-2-ylmethyl)-1H-indole-2-carboxylic acid] showed a Ki (Mcl-1) of less than 0.2 nM and a GI50 [1, 2] of 340 nM.

With `Cc1cc(OCCCc2c3n(c4c(-c5c(C)nn(C)c5C)c(Cl)ccc24)[C@H](C)CN(c2cc(CCN4CCCCC4)cc4cc(C(=O)O)n(C)c24)C3=O)cc(C)c1Cl` [Example 723, (R)-7-(7-chloro-10-(3-(4-chloro-3,5-dimethylphenoxy)propyl)-4-methyl-1-oxo-6-(1,3,5-trimethyl-1H-pyrazol-4-yl)-3,4-dihydropyrazino[1,2-a]indol-2(1H)-yl)-1-methyl-5-(2-(piperidin-1-yl)ethyl)-1H-indole-2-carboxylic acid] the Ki (Mcl-1) was less than 0.2 nM and the GI50 [1, 2] was less than 200 nM.

With `COCCn1cc(C(=O)O)c2cc(OC)cc(N3C[C@@H](C)n4c(c(CCCOc5cc(C)c(Cl)c(C)c5)c5ccc(Cl)c(-c6c(C)nn(C)c6C)c54)C3=O)c21` (single isomer, unassigned) [Example 672] the Ki (Mcl-1) was 0.43 nM and the GI50 ([1]; read-out: GI50 on cellular proliferation of H929 human cancer cell lines, H929 cells, 72 h, Cell TiterGlo, 10% FBS) was 840 nM.
